From patent publication US20250186456A1, “PYRIMIDINE-FUSED CYCLIC COMPOUND AND PREPARATION METHOD AND USE THEREOF” (Genfleet Therapeutics (Shanghai) Inc., priority 2021, published 2025)
Like-named read-outs stand apart in the source and are kept apart here.

Key:
Type in all cases: cell-based, human
[1] = test system: p-ERK in AGS cells (KRAS G12D mutation); experiment: Cell p-ERK assay (HTRF, Advance ERK phospho-T202/Y204 kit); settings: read-out: AGS p-ERK IC50
Procedure, shortened: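 Phospho-ERK (T202/Y204) measured by HTRF in lysates of human gastric AGS cells carrying KRAS G12D, after 3 h compound exposure at 0.1% DMSO over a 3.16-fold series. Percent inhibition relative to DMSO control and lysis-only blank; four-parameter curve fitting gave IC50.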

[2] = test system: AGS cells (KRAS G12D); experiment: Cell proliferation inhibition assay, 3D, CellTiter-Glo 3D, AGS; settings: AGS 3D sphere model, 5 days incubation
Procedure, shortened: (§1)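 Spheroids (800 AsPC-1 or 400 AGS cells/well; RPMI-1640 or F-12K with 10% FBS) formed overnight, then were dosed on day 2 with a 3.16-fold series at 0.1% DMSO. After 5 days, viability was read by CellTiter-Glo 3D luminescence, and IC50 came from four-parameter fits of inhibition versus DMSO control and medium blank.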

[3] = test system: AsPC-1 cells (KRAS G12D mutation); experiment: Cell proliferation inhibition assay, 3D, CellTiter-Glo 3D, AsPC-1; settings: AsPC-1 3D sphere model, 5 days incubation
Procedure, shortened: as §1

[4] = Homo sapiens, AGS cells, 3 hours incubation with compound, HTRF
[5] = AGS cells, 3 hours incubation with compound, HTRF

**Q.** Which results are given for `C#Cc1cccc2cc(N)cc(-c3nc4c5c(nc(OCC6(CO)CC6)nc5c3F)N3C[C@H]5CC[C@H](N5)[C@H]3[C@H](C)O4)c12` [Example Z701, (1-((((5S,5aS,6S,9R)-2-(3-amino-8-ethynylnaphthalen-1-yl)-1-fluoro-5-methyl-5a,6,7,8,9,10-hexahydro-5H-4-oxa-3,10a, 11,13,14-pentaaza-6,9-methanonaphtho[1,8-ab]heptalen-12-yl)oxy)methyl)cyclopropyl)methanol]?
**A.** IC50 [1, 4]: 0.0395 µM; IC50 ([2]; Homo sapiens, 120 h): 0.23 µM; IC50 ([3]; Homo sapiens, ASPC1, 120 h): 0.245 µM

**Q.** For `C#Cc1cccc2cccc(-c3nc4c5c(nc(OC[C@@]67CCCN6CCC7=C)nc5c3F)N3C[C@H]5CC[C@H](N5)[C@H]3[C@H](C)O4)c12` [Example Z702, (5S,5aS,6S,9R)-2-(8-ethynylnaphthalen-1-yl)-1-fluoro-5-methyl-12-(((S)-1-methylenetetrahydro-1H-pyrrolizin-7a (5H)-yl)methoxy)-5a,6,7,8,9,10-hexahydro-5H-4-oxa-3,10a, 11,13,14-pentaaza-6,9-methanonaphtho[1,8-ab]heptalene], which IC50 [1, 4] is on record?
**A.** 0.0111 µM

**Q.** And the IC50 ([2]; Homo sapiens, 120 h)?
**A.** 0.0268 µM

**Q.** And the IC50 ([3]; Homo sapiens, ASPC1, 120 h)?
**A.** 0.0519 µM

**Q.** For `C#Cc1cccc2cc(N)cc(-c3nc4c5c(nc(OCC67CC(=C)CN6CC(=C)C7)nc5c3F)N3C[C@H]5CC[C@H](N5)[C@H]3[C@H](C)O4)c12` [Example Z703, 4-((5S,5aS,6S,9R)-12-((2,6-dimethylenetetrahydro-1H-pyrrolizin-7a (5H)-yl)methoxy)-1-fluoro-5-methyl-5a,6,7,8,9,10-gexahydro-5H-4-oxa-3,10a,11,13,14-pentaaza-6,9-methanonaphtho[1,8-ab]heptalene-2-yl)-5-ethynylnaphthalen-2-amine], which IC50 [1, 5] is on record?
**A.** 0.00105 µM

**Q.** And the IC50 [2]?
**A.** 0.00264 µM

**Q.** What about the IC50 [3] of the same compound?
**A.** 0.00178 µM

**Q.** Which IC50 [1, 4] does the source give for `C#Cc1cccc2cc(N)cc(-c3nc4c5c(nc(OCC67CCCN6CC(F)(F)C7)nc5c3F)N3C[C@H]5CC[C@H](N5)[C@H]3[C@H](C)O4)c12` (stereo partly drawn) [Example Z706, 4-((5S,5aS,6S,9R)-12-((2,2-difluorotetrahydro-1H-pyrrolizin-7a (5H)-yl)methoxy)-1-fluoro-5-methyl-5a,6,7,8,9,10-hexahydro-5H-4-oxa-3,10a,11,13,14-pentaaza-6,9-methanonaphtho[1,8-ab]heptalen-2-yl)-5-ethynylnaphthalen-2-amine] here?
**A.** 0.00664 µM

**Q.** What about the IC50 ([2]; Homo sapiens, 120 h) of the same compound?
**A.** 0.026 µM

**Q.** What about the IC50 ([3]; Homo sapiens, ASPC1, 120 h) of the same compound?
**A.** 0.0379 µM

**Q.** Which IC50 ([1]; Homo sapiens, AGS, 3 h) does the source give for `C#Cc1c(F)ccc2cc(O)cc(-c3nc4c5c(nc(OCC6(CO)CC6)nc5c3F)N3C[C@H]5CC[C@H](N5)[C@H]3[C@H](C)O4)c12` [Example Z708, 5-ethynyl-6-fluoro-4-((5S,5aS,6S,9R)-1-fluoro-12-((1-(hydroxymethyl)cyclopropyl)methoxy)-5-methyl-5a,6,7,8,9,10-hexahydro-5H-4-oxa-3,10a, 11,13,14-pentaaza-6,9-methanonaphtho[1,8-ab]heptalene-2-yl) naphthalen-2-ol] here?
**A.** 0.0386 µM

**Q.** What about the IC50 ([2]; Homo sapiens, 120 h) of the same compound?
**A.** 0.176 µM

**Q.** What about the IC50 ([3]; Homo sapiens, ASPC1, 120 h) of the same compound?
**A.** 0.941 µM

**Q.** `C#Cc1cccc2cc(N)cc(-c3nc4c5c(nc(OCC6(CN7CCOCC7)CC6)nc5c3F)N3C[C@@H](C)NC[C@H]3[C@H](C)O4)c12` [Example Z709, 5-ethynyl-4-((5S,5aS,8R)-1-fluoro-5,8-dimethyl-11-((1-(morpholinomethyl)cyclopropyl)methoxy)-5,5a,6,7,8,9-hexahydro-4-oxa-3,7,9a,10,12-pentaazabenzo[4,5]cyclohepta[1,2,3-de]naphthalen-2-yl) naphthalen-2-amine] was tested. Which IC50 [1, 4] did it give?
**A.** 0.0122 µM

**Q.** What about the IC50 ([2]; Homo sapiens, 120 h) of the same compound?
**A.** 0.0868 µM

**Q.** What about the IC50 ([3]; Homo sapiens, ASPC1, 120 h) of the same compound?
**A.** 0.117 µM

**Q.** What does the source list for `C#Cc1cccc2cc(N)cc(-c3nc4c5c(nc(OCC6(CN7CC[C@@H](F)C7)CC6)nc5c3F)N3C[C@H]5CC[C@H](N5)[C@H]3[C@H](C)O4)c12` [Example Z710, 5-Ethynyl-4-((5S,5aS,6S,9R)-1-Fluoro-12-((1-(((R)-3-Fluoropyrrolidin-1-Yl)Methyl)Cyclopropyl)Methoxy)-5-Methyl-5a,6,7,8,9,10-Hexahydro-5H-4-Oxa-3,10a,11,13,14-Pentaaza-6,9-Methanonaphtho[1,8-Ab]Heptalen-2-Yl) Naphthalen-2-Amine]?
**A.** IC50 [1, 4]: 0.00034 µM; IC50 ([2]; Homo sapiens, 120 h): 0.00426 µM; IC50 ([3]; Homo sapiens, ASPC1, 120 h): 0.00372 µM

**Q.** How did the IC50 [1, 4] turn out when `C#Cc1cccc2cc(N)cc(-c3nc4c5c(nc(OCC67CC(=C)CN6CC(F)(F)C7)nc5c3F)N3C[C@H]5CC[C@H](N5)[C@H]3[C@H](C)O4)c12` (stereo partly drawn) [Example Z711, 4-((5S,5aS,6S,9R)-12-((2,2-difluoro-6-methylenetetrahydro-1H-pyrrolizin-7a (5H)-yl)methoxy)-1-fluoro-5-methyl-5a,6,7,8,9,10-hexahydro-5H-4-oxa-3,10a,11,13,14-pentaaza-6,9-methanonaphtho[1,8-ab]heptalen-2-yl)-5-ethynylnaphthalen-2-amine] was run?
**A.** 0.0133 µM

**Q.** What about the IC50 ([2]; Homo sapiens, 120 h) of the same compound?
**A.** 0.0542 µM

**Q.** What about the IC50 ([3]; Homo sapiens, ASPC1, 120 h) of the same compound?
**A.** 0.0856 µM

**Q.** What does the source list for `C#Cc1cccc2cc(N)cc(-c3nc4c5c(nc(OCC6(CN7CCC(F)(F)C7)CC6)nc5c3F)N3C[C@H]5CC[C@H](N5)[C@H]3[C@H](C)O4)c12` [Example Z712, 4-((5S,5aS,6S,9R)-12-((1-((3,3-difluoropyrrolidin-1-yl)methyl)cyclopropyl)methoxy)-1-fluoro-5-methyl-5a,6,7,8,9,10-hexahydro-5H-4-oxa-3,10a, 11, 13, 14-pentaaza-6,9-methanonaphtho[1,8-ab]heptalen-2-yl)-5-ethynylnaphthalen-2-amine]?
**A.** IC50 [1, 4]: 0.0282 µM; IC50 ([2]; Homo sapiens, 120 h): 0.0607 µM; IC50 ([3]; Homo sapiens, ASPC1, 120 h): 0.0304 µM

**Q.** What does the source list for `C#Cc1cccc2cc(N)cc(-c3nc4c5c(nc(OCC6(CN7CC(F)(F)C7)CC6)nc5c3F)N3C[C@H]5CC[C@H](N5)[C@H]3[C@H](C)O4)c12` [Example Z713, 4-((5S,5aS,6S,9R)-12-((1-((3,3-difluoroazetidin-1-yl)methyl)cyclopropyl)methoxy)-1-fluoro-5-methyl-5a,6,7,8,9,10-hexahydro-5H-4-oxa-3,10a, 11, 13,14-pentaaza-6,9-methanonaphtho[1,8-ab]heptalen-2-yl)-5-ethynylnaphthalen-2-amine]?
**A.** IC50 [1, 4]: 0.022 µM; IC50 ([2]; Homo sapiens, 120 h): 0.0735 µM; IC50 ([3]; Homo sapiens, ASPC1, 120 h): 0.0556 µM

**Q.** `C#Cc1cccc2cc(N)cc(-c3nc4c5c(nc(OCC6(CN(C)CC(F)(F)F)CC6)nc5c3F)N3C[C@H]5CC[C@H](N5)[C@H]3[C@H](C)O4)c12` [Example Z714, 5-Ethynyl-4-((5S,5aS,6S,9R)-1-Fluoro-5-Methyl-12-((1-((Methyl(2,2,2-Trifluoroethyl)Amino)Methyl)Cyclopropyl)Methoxy)-5a,6,7,8,9,10-Hexahydro-5H-4-Oxa-3,10a,11,13,14-Pentaaza-6,9-Methanonaphtho[1,8-Ab]Heptalen-2-Yl) Naphthalen-2-Amine] was tested. Which IC50 [1, 4] did it give?
**A.** 0.622 µM

**Q.** What about the IC50 ([2]; Homo sapiens, 120 h) of the same compound?
**A.** 0.673 µM

**Q.** What about the IC50 ([3]; Homo sapiens, ASPC1, 120 h) of the same compound?
**A.** 0.815 µM

**Q.** How did the IC50 [1, 4] turn out when `C#Cc1cccc2c(F)c(N)cc(-c3nc4c5c(nc(OCC6(CN7CCOCC7)CC6)nc5c3F)N3C[C@H]5CC[C@H](N5)[C@H]3[C@H](C)O4)c12` [Example Z715, 5-ethynyl-1-fluoro-4-((5S,5aS,6S,9R)-1-fluoro-5-methyl-12-((1-(morpholinomethyl)cyclopropyl)methoxy)-5a,6,7,8,9,10-hexahydro-5H-4-oxa-3,10a, 11,13, 14-pentaaza-6,9-methanonaphtho[1,8-ab]heptalen-2-yl) naphthalen-2-amine] was run?
**A.** 0.00194 µM

**Q.** And the IC50 ([2]; Homo sapiens, 120 h)?
**A.** 0.00344 µM

**Q.** What about the IC50 ([3]; Homo sapiens, ASPC1, 120 h) of the same compound?
**A.** 0.00383 µM

**Q.** What does the source list for `Cc1cc(-c2nc3c4c(nc(OCC5(CN6CCOCC6)CC5)nc4c2F)N2C[C@H]4CC[C@H](N4)[C@H]2[C@H](C)O3)c(C)c(N)c1C1CC1` [Example Z716, 2-cyclopropyl-5-((5S,5aS,6S,9R)-1-fluoro-5-methyl-12-((1-(morpholinomethyl)cyclopropyl)methoxy)-5a,6,7,8,9,10-hexahydro-5H-4-oxa-3,10a, 11,13,14-pentaaza-6,9-methanonaphtho[1,8-ab]heptalen-2-yl)-3,6-dimethylaniline]?
**A.** IC50 [1, 4]: 0.0818 µM; IC50 ([2]; Homo sapiens, 120 h): 0.0486 µM; IC50 ([3]; Homo sapiens, ASPC1, 120 h): 0.0892 µM

**Q.** What does the source list for `Cc1cc(N)c(C)c(-c2nc3c4c(nc(OCC5(CN6CCOCC6)CC5)nc4c2F)N2C[C@H]4CC[C@H](N4)[C@H]2[C@H](C)O3)c1C1CC1` [Example Z717, 4-cyclopropyl-3-((5S,5aS,6S,9R)-1-fluoro-5-methyl-12-((1-(morpholinomethyl)cyclopropyl)methoxy)-5a,6,7,8,9,10-hexahydro-5H-4-oxa-3,10a, 11,13,14-pentaaza-6,9-methanonaphtho[1,8-ab]heptalen-2-yl)-2,5-dimethylaniline]?
**A.** IC50 [1, 4]: 0.0148 µM; IC50 ([2]; Homo sapiens, 120 h): 0.0291 µM; IC50 ([3]; Homo sapiens, ASPC1, 120 h): 0.0502 µM

**Q.** How did the IC50 [1, 4] turn out when `C#Cc1cccc2cc(N)cc(-c3nc4c5c(nc(O[C@@H]6CCC[C@H]6O)nc5c3F)N3C[C@H]5CC[C@H](N5)[C@H]3[C@H](C)O4)c12` [Example Z718, (1R,2R)-2-(((5S,5aS,6S,9R)-2-(3-amino-8-ethynylnaphthalen-1-yl)-1-fluoro-5-methyl-5a,6,7,8,9,10-hexahydro-5H-4-oxa-3,10a,11,13,14-pentaaza-6,9-methanonaphtho[1,8-ab]heptalen-12-yl)oxy)cyclopentan-1-ol] was run?
**A.** 0.157 µM

**Q.** What about the IC50 ([2]; Homo sapiens, 120 h) of the same compound?
**A.** 0.455 µM

**Q.** What about the IC50 ([3]; Homo sapiens, ASPC1, 120 h) of the same compound?
**A.** 0.429 µM

**Q.** What does the source list for `C[C@@H]1Oc2nc(-c3cc(N)cc4ccc(F)c(F)c34)c(F)c3nc(OCC4(CN5CCOCC5)CC4)nc(c23)N2C[C@H]3CC[C@H](N3)[C@@H]12` [Example Z719, 5,6-difluoro-4-((5S,5aS,6S,9R)-1-fluoro-S-methyl-12-((1-(morpholinomethyl)cyclopropyl)methoxy)-5a,6,7,8,9,10-hexahydro-5H-4-oxa-3,10a, 11,13,14-pentaaza-6,9-methanonaphtho[1,8-ab]heptalene-2-yl) naphthalen-2-amine]?
**A.** IC50 [1, 5]: 0.00116 µM; IC50 [2]: 0.00103 µM; IC50 [3]: 0.003 µM
